Settings: in water

Which results are given for `O=C([O-])c1cccc(S(=O)(=O)O)c1.[Na+]`?
solubility (mole fraction) (278.15 K): 0.0276; solubility (mole fraction) (283.15 K): 0.0296; solubility (mole fraction) (288.15 K): 0.032; solubility (mole fraction) (293.15 K): 0.0346; solubility (mole fraction) (298.15 K): 0.0372; solubility (mole fraction) (303.15 K): 0.0417; solubility (mole fraction) (308.15 K): 0.0459; solubility (mole fraction) (313.15 K): 0.0519; solubility (mole fraction) (318.15 K): 0.0584; solubility (mole fraction) (323.15 K): 0.0687
